# Laboratory results reported in PubChem BioAssay AID1963958 (Molecular Pharmacology Branch, DTP, NCI, 2024).
# Test system: MDA-MB-231 multicell spheroids, viability
# Test: Anticancer human tumor MDA-MB-231 cell line growth inhibition [PI3K];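 note: spheroids exposed to agents for seven days before reading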;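 for viability, T/C: percent of vehicle control luminescence with DMSO treated spheroids as 100%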
# Settings: for IC50: curve of first compound; for viability, T/C: stronger effect = lower value
# Procedure, shortened: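 Three cell types, namely tumor cells, endothelial cells and mesenchymal stem cells, formed each spheroid. Combinations with four PI3K inhibitors were screened at clinically achievable concentrations decreasing by half-log, and spheroid viability was recorded.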
# [1] = second compound 0.00316 µM, first compound 0.0316 µM
# [2] = second compound 0.00316 µM, first compound 0.1 µM
# [3] = second compound 0.00316 µM, first compound 0.316 µM
# [4] = second compound 0.00316 µM, first compound 1 µM
# [5] = second compound 0.00316 µM, first compound 3.16 µM
# [6] = second compound 0.00316 µM, first compound 10 µM
# [7] = second compound 0.01 µM, first compound 0.0316 µM
# [8] = second compound 0.01 µM, first compound 0.1 µM
# [9] = second compound 0.01 µM, first compound 0.316 µM
# [10] = second compound 0.01 µM, first compound 1 µM
# [11] = second compound 0.01 µM, first compound 3.16 µM
# [12] = second compound 0.01 µM, first compound 10 µM
# [13] = second compound 0.0316 µM, first compound 0.0316 µM
# [14] = second compound 0.0316 µM, first compound 0.1 µM
# [15] = second compound 0.0316 µM, first compound 0.316 µM
# [16] = second compound 0.0316 µM, first compound 1 µM
# [17] = second compound 0.0316 µM, first compound 3.16 µM
# [18] = second compound 0.0316 µM, first compound 10 µM
# [19] = second compound 0.1 µM, first compound 0.0316 µM
# [20] = second compound 0.1 µM, first compound 0.1 µM
# [21] = second compound 0.1 µM, first compound 0.316 µM
# [22] = second compound 0.1 µM, first compound 1 µM
# [23] = second compound 0.1 µM, first compound 3.16 µM
# [24] = second compound 0.1 µM, first compound 10 µM
# [25] = second compound 0.316 µM, first compound 0.0316 µM
# [26] = second compound 0.316 µM, first compound 0.1 µM
# [27] = second compound 0.316 µM, first compound 0.316 µM
# [28] = second compound 0.316 µM, first compound 1 µM
# [29] = second compound 0.316 µM, first compound 3.16 µM
# [30] = second compound 0.316 µM, first compound 10 µM
# [31] = second compound 1 µM, first compound 0.0316 µM
# [32] = second compound 1 µM, first compound 0.1 µM
# [33] = second compound 1 µM, first compound 0.316 µM
# [34] = second compound 1 µM, first compound 1 µM
# [35] = second compound 1 µM, first compound 3.16 µM
# [36] = second compound 1 µM, first compound 10 µM
structure (smiles),measurement,setting,value
Cn1ncc(Cl)c1-c1cc(C(=O)NC(CN)Cc2cccc(F)c2)sc1Cl (centres undefined) + CC(Nc1ccc2c(c1)OCCn1cc(N3C(=O)OCC3C(F)F)nc1-2)C(N)=O,IC50,second compound 0.00316 µM,2720 nM
same,IC50,second compound 0.01 µM,2610 nM
same,IC50,second compound 0.0316 µM,1540 nM
same,IC50,second compound 0.1 µM,1260 nM
same,IC50,second compound 0.316 µM,1180 nM
same,IC50,second compound 1 µM,665 nM
same,"viability, T/C",[1],95.7%
same,"viability, T/C",[2],94.2%
same,"viability, T/C",[3],91.2%
same,"viability, T/C",[4],73.4%
same,"viability, T/C",[5],46.9%
same,"viability, T/C",[6],25.3%
same,"viability, T/C",[7],91.5%
same,"viability, T/C",[8],95.2%
same,"viability, T/C",[9],80.7%
same,"viability, T/C",[10],70.5%
same,"viability, T/C",[11],45.9%
same,"viability, T/C",[12],22.8%
same,"viability, T/C",[13],76.4%
same,"viability, T/C",[14],75.2%
same,"viability, T/C",[15],70.1%
same,"viability, T/C",[16],58.3%
same,"viability, T/C",[17],36.6%
same,"viability, T/C",[18],24.1%
same,"viability, T/C",[19],71.4%
same,"viability, T/C",[20],68.8%
same,"viability, T/C",[21],62.9%
same,"viability, T/C",[22],55.6%
same,"viability, T/C",[23],34.5%
same,"viability, T/C",[24],22%
same,"viability, T/C",[25],66.4%
same,"viability, T/C",[26],59.7%
same,"viability, T/C",[27],59.7%
same,"viability, T/C",[28],53.4%
same,"viability, T/C",[29],36.8%
same,"viability, T/C",[30],21%
same,"viability, T/C",[31],58.9%
same,"viability, T/C",[32],56.9%
same,"viability, T/C",[33],55.1%
same,"viability, T/C",[34],46.8%
same,"viability, T/C",[35],36.9%
same,"viability, T/C",[36],18.9%
Cn1nccc1Nc1nccc(-c2ccn(C(CO)c3ccc(Cl)c(F)c3)c(=O)c2)n1 (centres undefined) + CC(Nc1ccc2c(c1)OCCn1cc(N3C(=O)OCC3C(F)F)nc1-2)C(N)=O,IC50,second compound 0.00316 µM,1080 nM
same,IC50,second compound 0.01 µM,618 nM
same,IC50,second compound 0.0316 µM,270 nM
same,IC50,second compound 0.1 µM,88.8 nM
same,IC50,second compound 0.316 µM,66.9 nM
same,IC50,second compound 1 µM,< 31.6 nM
same,"viability, T/C",[1],64.6%
same,"viability, T/C",[2],68.1%
same,"viability, T/C",[3],56.8%
same,"viability, T/C",[4],50.9%
same,"viability, T/C",[5],39.6%
same,"viability, T/C",[6],26.9%
same,"viability, T/C",[7],71.6%
same,"viability, T/C",[8],64.4%
same,"viability, T/C",[9],52%
same,"viability, T/C",[10],46.9%
same,"viability, T/C",[11],39.6%
same,"viability, T/C",[12],23%
same,"viability, T/C",[13],69.2%
same,"viability, T/C",[14],56.4%
same,"viability, T/C",[15],47.3%
same,"viability, T/C",[16],42.2%
same,"viability, T/C",[17],29.4%
same,"viability, T/C",[18],20.4%
same,"viability, T/C",[19],56.4%
same,"viability, T/C",[20],46.6%
same,"viability, T/C",[21],43%
same,"viability, T/C",[22],40.2%
same,"viability, T/C",[23],25.5%
same,"viability, T/C",[24],20.8%
same,"viability, T/C",[25],53.4%
same,"viability, T/C",[26],48.5%
same,"viability, T/C",[27],42.1%
same,"viability, T/C",[28],33.4%
same,"viability, T/C",[29],26.3%
same,"viability, T/C",[30],19%
same,"viability, T/C",[31],51.2%
same,"viability, T/C",[32],42.3%
same,"viability, T/C",[33],38.5%
same,"viability, T/C",[34],36.1%
same,"viability, T/C",[35],26.6%
same,"viability, T/C",[36],16.2%
